The structures appear in SMILES notation. Where a name gives a salt, the structure may show the parent alone. Bounds are passed on as bounds.

For one data set, the target named is T1, h5-HT transporter (Homo sapiens, UniProt P31645).
T1 construct: Human platelet membranes (Oceanix Biosciences Corporation, Hanover, Md., USA) were thawed; tissue Oceanix Biosciences Corporation; host or cells: human platelet membranes
As to the kind of experiment: Radioligand binding experiment for 5-HT transporter ([3H]paroxetine). The conditions noted are these: human platelet membranes, [3H]paroxetine 0.5 nM. In outline:
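Competition binding on human platelet membranes (50-100 μg protein) in 50 mM Tris-HCl, 120 mM NaCl, 5 mM KCl with 0.5 nM [3H]paroxetine, 60 min at 25 °C, filtration and scintillation counting. Non-specific binding defined with 1 μM imipramine; pIC50 from nonlinear sigmoidal fits of percent total binding.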

For a further data set, the target named is T2, hα2A receptor (Homo sapiens, UniProt P08913).
T2 construct: expressed in transfected cells; host or cells: CHO cells
T2 sequence (P08913 1-465): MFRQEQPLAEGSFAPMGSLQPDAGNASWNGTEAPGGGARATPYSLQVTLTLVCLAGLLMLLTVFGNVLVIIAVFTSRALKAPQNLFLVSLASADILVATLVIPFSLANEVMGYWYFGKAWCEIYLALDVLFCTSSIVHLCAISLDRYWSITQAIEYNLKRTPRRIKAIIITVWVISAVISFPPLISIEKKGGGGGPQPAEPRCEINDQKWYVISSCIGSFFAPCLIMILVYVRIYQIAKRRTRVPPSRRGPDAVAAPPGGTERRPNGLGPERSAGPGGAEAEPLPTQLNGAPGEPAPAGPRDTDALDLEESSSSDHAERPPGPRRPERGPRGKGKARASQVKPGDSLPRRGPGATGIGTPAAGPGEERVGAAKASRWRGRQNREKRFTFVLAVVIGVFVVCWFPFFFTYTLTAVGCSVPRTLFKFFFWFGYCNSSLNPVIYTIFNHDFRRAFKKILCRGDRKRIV
As to the kind of experiment: Radioligand binding experiment for α2A-adrenergic receptor ([3H]-raulwolscine). Conditions: CHO cell membranes with human α2A receptor, [3H]raulwolscine 1 nM; read-out: pIC50 α2A (converted). In a few lines: (§1)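 Membranes from CHO cells stably expressing human α2A or α2C receptors (sodium butyrate-induced) incubated with 1 nM [3H]raulwolscine in 25 mM glycylglycine pH 8.0 for 60 min at 25° C, then filtered. Non-specific binding defined with 1 μM oxymetazoline (α2A) or 1 μM spiroxatrine (α2C); pIC50 from sigmoidal competition curves.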

The target in the next data set is T3, hα2C receptor (Homo sapiens, UniProt P18825).
T3 construct: expressed in transfected cells; host or cells: CHO cells
T3 sequence (P18825 1-462): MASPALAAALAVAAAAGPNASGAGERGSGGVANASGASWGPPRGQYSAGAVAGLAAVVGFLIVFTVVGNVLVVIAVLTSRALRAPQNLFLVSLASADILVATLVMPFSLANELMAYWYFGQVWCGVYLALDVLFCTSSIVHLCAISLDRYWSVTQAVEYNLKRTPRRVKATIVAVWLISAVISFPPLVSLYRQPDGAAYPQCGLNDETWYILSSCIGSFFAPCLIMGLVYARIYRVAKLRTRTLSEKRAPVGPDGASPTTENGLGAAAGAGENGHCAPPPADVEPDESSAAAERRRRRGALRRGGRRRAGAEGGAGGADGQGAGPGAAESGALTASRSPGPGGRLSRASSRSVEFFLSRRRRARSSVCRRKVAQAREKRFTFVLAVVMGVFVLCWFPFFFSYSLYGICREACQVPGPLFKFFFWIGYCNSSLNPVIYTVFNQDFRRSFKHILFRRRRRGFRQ
The data set can be described thus: Radioligand binding experiment for α2C-adrenergic receptor ([3H]-raulwolscine). The conditions noted are these: CHO cell membranes with human α2C receptor, [3H]raulwolscine 1 nM; read-out: pIC50 α2C (converted). In a few lines: as §1

T1 sequence (P31645 whole entry): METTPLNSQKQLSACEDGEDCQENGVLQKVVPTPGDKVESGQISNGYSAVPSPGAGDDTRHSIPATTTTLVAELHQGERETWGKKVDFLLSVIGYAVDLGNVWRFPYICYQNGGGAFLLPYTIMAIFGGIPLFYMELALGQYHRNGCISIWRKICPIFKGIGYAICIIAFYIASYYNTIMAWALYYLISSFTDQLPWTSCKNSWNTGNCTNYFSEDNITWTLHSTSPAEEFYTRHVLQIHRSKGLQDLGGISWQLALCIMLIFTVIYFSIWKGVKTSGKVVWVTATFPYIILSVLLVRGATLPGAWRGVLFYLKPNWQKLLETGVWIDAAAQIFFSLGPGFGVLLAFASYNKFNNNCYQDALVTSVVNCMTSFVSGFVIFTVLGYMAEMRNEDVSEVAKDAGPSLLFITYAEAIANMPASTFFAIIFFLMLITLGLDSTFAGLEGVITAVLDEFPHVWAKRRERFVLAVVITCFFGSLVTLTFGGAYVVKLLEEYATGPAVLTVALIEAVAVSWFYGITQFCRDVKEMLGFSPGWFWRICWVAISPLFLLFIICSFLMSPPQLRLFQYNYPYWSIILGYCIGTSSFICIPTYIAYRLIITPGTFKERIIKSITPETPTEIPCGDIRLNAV

For the compound `CC(=Cc1ccc(F)cc1)CN1CCN(CC2ON=C3c4ccc(N(C)CCN)cc4OCC32)CC1` (stereo not shown) (as salt: HCl) [Compound 19], the melting point is 218 to 226 °C.
On the same count and under the same terms, then `CNCCNc1ccc2c(c1)OCC1C2=NOC1CN1CCN(CC(C)=Cc2ccc(F)cc2)CC1` (stereo not shown) (as salt: HCl) [Compound 20], with 199 to 235.5 °C.
The compound `C/C(=C\c1ccccc1)CN1CCN(CC2ON=C3c4ccc(NCc5ccccc5)cc4OCC32)CC1` (stereo not shown) [Compound 2] showed a melting point of 108.9 to 114.7 °C. This compound also had an IC50 at h5-HT transporter of 31.6 nM. On hα2A receptor, the IC50 was 15.8 nM.
`C/C(=C\c1ccc(F)cc1)CN1CCN(CC2ON=C3c4ccc(NS(=O)(=O)c5ccc(C)cc5)cc4OCC32)CC1` (stereo not shown) [Compound 3]: the melting point lay within 177 to 194.1 °C. For the same compound, the IC50 on h5-HT transporter is 39.8 nM. Further, at hα2A receptor, the IC50 was 79.4 nM. Further, the IC50 at hα2C receptor was 31.6 nM.
For `C/C(=C\c1ccccc1)CN1CCN(CC2ON=C3c4cc(N5CCOCC5)ccc4OCC32)CC1` (stereo not shown) [Compound 4], in that order: 121.8 to 125.9 °C, over 1000 nM, 12.6 nM and 2.51 nM.
For `C/C(=C\c1ccccc1)CN1CCN(CC2ON=C3c4ccc(N)cc4OCC32)CC1` (stereo not shown) [Compound 5] the same measures were 134.1 to 136.2 °C, 100 nM, 2.51 nM and 3.98 nM.
For `CC(=O)Nc1ccc2c(c1)OCC1C2=NOC1CN1CCN(C/C(C)=C/c2ccccc2)CC1` (stereo not shown) [Compound 6] the same measures were 112.1 to 126.7 °C, 50.1 nM, 3.16 nM and 2.51 nM.
The compound `COc1ccc(NC(=O)Nc2ccc3c(c2)OCC2C3=NOC2CN2CCN(C/C(C)=C/c3ccccc3)CC2)cc1OC` (stereo not shown) [Compound 7] returned a melting point of 202.2 to 207.1 °C. In addition, on h5-HT transporter, the IC50 is 31.6 nM. Besides, the IC50 at hα2A receptor is 15.8 nM. Further, the IC50 on hα2C receptor was 5.01 nM.
For `COc1cc2c(cc1NCCN(C)C)OCC1C2=NOC1CN1CCN(C/C(C)=C/c2ccccc2)CC1` (stereo not shown) [Compound 9], in that order: 154.5 to 157.9 °C, 5.01 nM, 5.01 nM and 1000 nM.
Take `COCC(=O)N1CCOc2cc3c(cc21)OCC1C3=NOC1CN1CCN(C/C(C)=C/c2ccccc2)CC1` (stereo not shown) [Compound 15]: the melting point was 118.9 to 127.6 °C. The same compound gave an IC50 on h5-HT transporter of 10 nM. The IC50 at hα2A receptor is 3.16 nM. Also, at hα2C receptor, the IC50 is 0.794 nM.
Consider `CNCCN(C)c1ccc2c(c1)OCC1C2=NOC1CN1CCN(CC(C)=Cc2ccc(F)cc2)CC1` (stereo not shown) [Compound 21], for which the melting point is 98.4 to 105.3 °C. This compound gave an IC50 at h5-HT transporter of 3.98 nM. Also, the IC50 at hα2A receptor is 7.94 nM. In addition, the IC50 on hα2C receptor is 2 nM.
Regarding `CC(=Cc1ccc(F)cc1)CN1CCN(CC2ON=C3c4ccc(N(C)CCNCC5CC5)cc4OCC32)CC1` (stereo not shown) [Compound 118], the IC50 was 3.16 nM at h5-HT transporter, 12.6 nM at hα2A receptor and 3.16 nM on hα2C receptor.
Turning to `CC(=Cc1ccc(F)cc1)CN1CCN(CC2ON=C3c4ccc(N(C)CCNCC(C)O)cc4OCC32)CC1` (stereo not shown) [Compound 119], the IC50 on h5-HT transporter is 3.16 nM; at hα2A receptor it was 10 nM; on hα2C receptor it was 3.16 nM.
Take `CCC(C)(C)NCCN(C)c1ccc2c(c1)OCC1C2=NOC1CN1CCN(CC(C)=Cc2ccc(F)cc2)CC1` (stereo not shown) [Compound 120]: the IC50 at h5-HT transporter was 2.51 nM; on hα2A receptor it was 39.8 nM; on hα2C receptor it was 6.31 nM.
For `C=CCN(C)CCN(C)c1ccc2c(c1)OCC1C2=NOC1CN1CCN(CC(C)=Cc2ccc(F)cc2)CC1` (stereo not shown) [Compound 121], in that order: 158 nM, 501 nM and 100 nM.
For `CC(=Cc1ccc(F)cc1)CN1CCN(CC2ON=C3c4ccc(N(C)CCN(C)C(C)(C)C)cc4OCC32)CC1` (stereo not shown) [Compound 122], in that order: 6.31 nM, 39.8 nM and 7.94 nM.
Regarding `CC(=Cc1ccc(F)cc1)CN1CCN(CC2ON=C3c4ccc(N(C)CCN5CCC5)cc4OCC32)CC1` (stereo not shown) [Compound 123], the figures for the IC50 on h5-HT transporter, at hα2A receptor and on hα2C receptor were 7.94 nM, 10 nM and 3.16 nM, respectively.
For `COc1cc2c(cc1NC(=O)Nc1ccccc1)OCC1C2=NOC1CN1CCN(CC(C)=Cc2ccc(F)cc2)CC1` (stereo not shown) [Compound 124], in that order: 50.1 nM, 316 nM and 158 nM.
Regarding `CC(=Cc1ccc(F)cc1)CN1CCN(CC2ON=C3c4ccc(N5CCCCCC5)cc4OCC32)CC1` (stereo not shown) [Compound 125], the IC50 at h5-HT transporter is 158 nM; on hα2A receptor, 200 nM; on hα2C receptor, 158 nM.
`COc1cc2c(cc1NCC1CC1C)OCC1C2=NOC1CN1CCN(CC(C)=Cc2ccc(F)cc2)CC1` (stereo not shown) [Compound 126]: the IC50 is 126 nM at h5-HT transporter, 63.1 nM on hα2A receptor and 126 nM on hα2C receptor.
Take `CCC(C)NC(=O)OCCN(C)c1ccc2c(c1)OCC1C2=NOC1CN1CCN(CC(C)=Cc2ccc(F)cc2)CC1` (stereo not shown) [Compound 127]: the IC50 at h5-HT transporter was 200 nM; at hα2A receptor, 316 nM; at hα2C receptor, 158 nM.
For `COc1cc2c(cc1NCC1(C)CC1)OCC1C2=NOC1CN1CCN(CC(C)=Cc2ccc(F)cc2)CC1` (stereo not shown) [Compound 128] the same measures were 158 nM, 200 nM and 200 nM.
For `CC(=Cc1ccc(F)cc1)CN1CCN(CC2ON=C3c4ccc(NC(C)C)cc4OCC32)CC1` (stereo not shown) [Compound 129], the IC50 at h5-HT transporter is 158 nM; at hα2A receptor, 63.1 nM; at hα2C receptor, 31.6 nM.
For `CC(=Cc1ccc(F)cc1)CN1CCN(CC2ON=C3c4ccc(NCC5CC5)cc4OCC32)CC1` (stereo not shown) [Compound 130], in that order: 126 nM, 126 nM and 25.1 nM.
As for `CCC(C)Nc1ccc2c(c1)OCC1C2=NOC1CN1CCN(CC(C)=Cc2ccc(F)cc2)CC1` (stereo not shown) [Compound 131], the IC50 at h5-HT transporter was 63.1 nM; at hα2A receptor, 158 nM; at hα2C receptor it was 50.1 nM.
For `CC(=Cc1ccc(F)cc1)CN1CCN(CC2ON=C3c4ccc(NCC(C)O)cc4OCC32)CC1` (stereo not shown) [Compound 132], in that order: 63.1 nM, 25.1 nM and 31.6 nM.
For `CCCCCNc1ccc2c(c1)OCC1C2=NOC1CN1CCN(CC(C)=Cc2ccc(F)cc2)CC1` (stereo not shown) [Compound 133], in that order: 126 nM, 126 nM and 126 nM.
For `CC(=Cc1ccc(F)cc1)CN1CCN(CC2ON=C3c4ccc(NC(C)CO)cc4OCC32)CC1` (stereo not shown) [Compound 134], in that order: 126 nM, 63.1 nM and 126 nM.
Turning to `CC(=Cc1ccc(F)cc1)CN1CCN(CC2ON=C3c4ccc(N5CC=CCC5)cc4OCC32)CC1` (stereo not shown) [Compound 135], the IC50 was 79.4 nM on h5-HT transporter, 39.8 nM at hα2A receptor and 25.1 nM at hα2C receptor.
For `CC(=Cc1ccc(F)cc1)CN1CCN(CC2ON=C3c4ccc(N5CCNCC5)cc4OCC32)CC1` (stereo not shown) [Compound 136], in that order: 7.94 nM, 39.8 nM and 5.01 nM.
For `CC(=Cc1ccc(F)cc1)CN1CCN(CC2ON=C3c4ccc(NC(N)=O)cc4OCC32)CC1` (stereo not shown) [Compound 137] the same measures were 20 nM, 6.31 nM and 10 nM.
Take `CC(=Cc1ccc(F)cc1)CN1CCN(CC2ON=C3c4ccc(NC(=O)C5CC5)cc4OCC32)CC1` (stereo not shown) [Compound 138]: the IC50 was 50.1 nM on h5-HT transporter, 31.6 nM at hα2A receptor and 31.6 nM on hα2C receptor.
Consider `CC(=Cc1ccc(F)cc1)CN1CCN(CC2ON=C3c4ccc(N5CCC(C)C5=O)cc4OCC32)CC1` (stereo not shown) [Compound 139], for which the IC50 was 126 nM on h5-HT transporter, 15.8 nM on hα2A receptor and 7.94 nM at hα2C receptor.
